According to publication PMC11420776 (RSC Advances, 2024):

Assays:
RPMI-8226 (leukemia) = assay: NCI 60-cell one-dose antiproliferative screen; format: cell-based, human; conditions: one dose 10 μM
PC-3 (prostate cancer) = assay: NCI 60-cell one-dose antiproliferative screen; format: cell-based, human; conditions: one dose 10 μM
MALME-3M (melanoma) = assay: NCI 60-cell one-dose antiproliferative screen; format: cell-based, human; conditions: one dose 10 μM
COLO-205 (colon cancer) = assay: NCI 60-cell one-dose antiproliferative screen; format: cell-based, human; conditions: one dose 10 μM
SF-539 (CNS cancer) = assay: NCI 60-cell one-dose antiproliferative screen; format: cell-based, human; conditions: one dose 10 μM
UACC-257 (melanoma) = assay: NCI 60-cell one-dose antiproliferative screen; format: cell-based, human; conditions: one dose 10 μM
SK-MEL-2 (melanoma) = assay: NCI 60-cell one-dose antiproliferative screen; format: cell-based, human; conditions: one dose 10 μM
786-0 (renal cancer) = assay: NCI 60-cell one-dose antiproliferative screen; format: cell-based, human; conditions: one dose 10 μM
DU-145 (prostate cancer) = assay: NCI 60-cell one-dose antiproliferative screen; format: cell-based, human; conditions: one dose 10 μM
T-47D (breast cancer) = assay: NCI 60-cell one-dose antiproliferative screen; format: cell-based, human; conditions: one dose 10 μM
LOX IMIV (melanoma) = assay: NCI 60-cell one-dose antiproliferative screen; format: cell-based, human; conditions: one dose 10 μM
SNB-19 (CNS cancer) = assay: NCI 60-cell one-dose antiproliferative screen; format: cell-based, human; conditions: one dose 10 μM
HCT-116 (colon cancer) = assay: NCI 60-cell one-dose antiproliferative screen; format: cell-based, human; conditions: one dose 10 μM
UO-31 (renal cancer) = assay: NCI 60-cell one-dose antiproliferative screen; format: cell-based, human; conditions: one dose 10 μM
HCC-2998 (colon cancer) = assay: NCI 60-cell one-dose antiproliferative screen; format: cell-based, human; conditions: one dose 10 μM
OVCAR-4 (ovarian cancer) = assay: NCI 60-cell one-dose antiproliferative screen; format: cell-based, human; conditions: one dose 10 μM
SF-295 (CNS cancer) = assay: NCI 60-cell one-dose antiproliferative screen; format: cell-based, human; conditions: one dose 10 μM
OVCAR-8 (ovarian cancer) = assay: NCI 60-cell one-dose antiproliferative screen; format: cell-based, human; conditions: one dose 10 μM
HOP-92 (NSC lung cancer) = assay: NCI 60-cell one-dose antiproliferative screen; format: cell-based, human; conditions: one dose 10 μM
TK-10 (renal cancer) = assay: NCI 60-cell one-dose antiproliferative screen; format: cell-based, human; conditions: one dose 10 μM
[1] = test system: NCI-H322M (NSC lung cancer); assay: NCI 60-cell one-dose antiproliferative screen; format: cell-based, human; conditions: one dose 10 μM
A498 (renal cancer) = assay: NCI 60-cell one-dose antiproliferative screen; format: cell-based, human; conditions: one dose 10 μM
OVCAR-5 (ovarian cancer) = assay: NCI 60-cell one-dose antiproliferative screen; format: cell-based, human; conditions: one dose 10 μM
M14 (melanoma) = assay: NCI 60-cell one-dose antiproliferative screen; format: cell-based, human; conditions: one dose 10 μM
ACHN (renal cancer) = assay: NCI 60-cell one-dose antiproliferative screen; format: cell-based, human; conditions: one dose 10 μM
[2] = test system: NCI-H522 (NSC lung cancer); assay: NCI 60-cell one-dose antiproliferative screen; format: cell-based, human; conditions: one dose 10 μM
MCF7 (breast cancer) = assay: NCI 60-cell one-dose antiproliferative screen; format: cell-based, human; conditions: one dose 10 μM
[3] = test system: NCI/ADR-RES (ovarian cancer); assay: NCI 60-cell one-dose antiproliferative screen; format: cell-based, human; conditions: one dose 10 μM
HS 578T (breast cancer) = assay: NCI 60-cell one-dose antiproliferative screen; format: cell-based, human; conditions: one dose 10 μM
SF-268 (CNS cancer) = assay: NCI 60-cell one-dose antiproliferative screen; format: cell-based, human; conditions: one dose 10 μM
[4] = test system: 60 human tumor cell lines; assay: NCI 60-cell one-dose antiproliferative screen, whole panel; format: cell-based; conditions: Homo sapiens, 60 cell, read-out: Mean inhibition (mean GI%)
RXF 393 (renal cancer) = assay: NCI 60-cell one-dose antiproliferative screen; format: cell-based, human; conditions: one dose 10 μM
CAKI-1 (renal cancer) = assay: NCI 60-cell one-dose antiproliferative screen; format: cell-based, human; conditions: one dose 10 μM
CCRF-CEM (leukemia) = assay: NCI 60-cell one-dose antiproliferative screen; format: cell-based, human; conditions: one dose 10 μM
SNB-75 (CNS cancer) = assay: NCI 60-cell one-dose antiproliferative screen; format: cell-based, human; conditions: one dose 10 μM
SW-620 (colon cancer) = assay: NCI 60-cell one-dose antiproliferative screen; format: cell-based, human; conditions: one dose 10 μM
EKVX (NSC lung cancer) = assay: NCI 60-cell one-dose antiproliferative screen; format: cell-based, human; conditions: one dose 10 μM
OVCAR-3 (ovarian cancer) = assay: NCI 60-cell one-dose antiproliferative screen; format: cell-based, human; conditions: one dose 10 μM
[5] = test system: MDA-MB-231/ATCC (breast cancer); assay: NCI 60-cell one-dose antiproliferative screen; format: cell-based, human; conditions: one dose 10 μM
[6] = test system: MDA-MB-468 (breast cancer); assay: NCI 60-cell one-dose antiproliferative screen; format: cell-based, human; conditions: one dose 10 μM
[7] = test system: NCI-H23 (NSC lung cancer); assay: NCI 60-cell one-dose antiproliferative screen; format: cell-based, human; conditions: one dose 10 μM
HOP-62 (NSC lung cancer) = assay: NCI 60-cell one-dose antiproliferative screen; format: cell-based, human; conditions: one dose 10 μM
[8] = test system: NCI-H226 (NSC lung cancer); assay: NCI 60-cell one-dose antiproliferative screen; format: cell-based, human; conditions: one dose 10 μM
SK-OV-3 (ovarian cancer) = assay: NCI 60-cell one-dose antiproliferative screen; format: cell-based, human; conditions: one dose 10 μM
U251 (CNS cancer) = assay: NCI 60-cell one-dose antiproliferative screen; format: cell-based, human; conditions: one dose 10 μM
HT29 (colon cancer) = assay: NCI 60-cell one-dose antiproliferative screen; format: cell-based, human; conditions: one dose 10 μM
IGROV1 (ovarian cancer) = assay: NCI 60-cell one-dose antiproliferative screen; format: cell-based, human; conditions: one dose 10 μM
SN12C (renal cancer) = assay: NCI 60-cell one-dose antiproliferative screen; format: cell-based, human; conditions: one dose 10 μM
UACC-62 (melanoma) = assay: NCI 60-cell one-dose antiproliferative screen; format: cell-based, human; conditions: one dose 10 μM
MDA-MB-435 (melanoma) = assay: NCI 60-cell one-dose antiproliferative screen; format: cell-based, human; conditions: one dose 10 μM
[9] = test system: NCI-H460 (NSC lung cancer); assay: NCI 60-cell one-dose antiproliferative screen; format: cell-based, human; conditions: one dose 10 μM
SK-MEL-28 (melanoma) = assay: NCI 60-cell one-dose antiproliferative screen; format: cell-based, human; conditions: one dose 10 μM
KM12 (colon cancer) = assay: NCI 60-cell one-dose antiproliferative screen; format: cell-based, human; conditions: one dose 10 μM
[10] = test system: A549/ATCC (NSC lung cancer); assay: NCI 60-cell one-dose antiproliferative screen; format: cell-based, human; conditions: one dose 10 μM
HCT-15 (colon cancer) = assay: NCI 60-cell one-dose antiproliferative screen; format: cell-based, human; conditions: one dose 10 μM

SMILES: CN(C)c1ccc(C=NNc2ccc3nnc(-c4ccccc4)n3n2)cc1 [Compound 4c, N,N-Dimethyl-4-((2-(3-phenyl-[1,2,4]triazolo[4,3-b]pyridazin-6-yl)hydrazono)methyl)aniline]
- GI% (RPMI-8226 (leukemia)): — (— GI% is below 15%)
- GI% (PC-3 (prostate cancer)): 18.94%
- GI% (MALME-3M (melanoma)): — (— GI% is below 15%)
- GI% (COLO-205 (colon cancer)): — (— GI% is below 15%)
- GI% (SF-539 (CNS cancer)): — (— GI% is below 15%)
- GI% (UACC-257 (melanoma)): — (— GI% is below 15%)
- GI% (SK-MEL-2 (melanoma)): — (— GI% is below 15%)
- GI% (786-0 (renal cancer)): 18.27%
- GI% (DU-145 (prostate cancer)): 26.64%
- GI% (T-47D (breast cancer)): 22.66%
- GI% (LOX IMIV (melanoma)): 62.55%
- GI% (SNB-19 (CNS cancer)): 30.50%
- GI% (HCT-116 (colon cancer)): — (— GI% is below 15%)
- GI% (UO-31 (renal cancer)): 18.89%
- GI% (HCC-2998 (colon cancer)): — (— GI% is below 15%)
- GI% (OVCAR-4 (ovarian cancer)): 41.36%
- GI% (SF-295 (CNS cancer)): — (— GI% is below 15%)
- GI% (OVCAR-8 (ovarian cancer)): 57.57%
- GI% (HOP-92 (NSC lung cancer)): 29.78%
- GI% (TK-10 (renal cancer)): — (— GI% is below 15%)
- GI% [1]: — (— GI% is below 15%)
- GI% (A498 (renal cancer)): — (— GI% is below 15%)
- GI% (OVCAR-5 (ovarian cancer)): — (— GI% is below 15%)
- GI% (M14 (melanoma)): — (— GI% is below 15%)
- GI% (ACHN (renal cancer)): 21.61%
- GI% [2]: 40.80%
- GI% (MCF7 (breast cancer)): 34.47%
- GI% [3]: 55.19%
- GI% (HS 578T (breast cancer)): 33.19%
- GI% (SF-268 (CNS cancer)): 57.96%
- inhibition at 10 µM [4]: 17.7%
- GI% (RXF 393 (renal cancer)): 15.29%
- GI% (CAKI-1 (renal cancer)): 32.25%
- GI% (CCRF-CEM (leukemia)): — (— GI% is below 15%)
- GI% (SNB-75 (CNS cancer)): 65.40%
- GI% (SW-620 (colon cancer)): — (— GI% is below 15%)
- GI% (EKVX (NSC lung cancer)): 21.18%
- GI% (OVCAR-3 (ovarian cancer)): 34.65%
- GI% [5]: — (— GI% is below 15%)
- GI% [6]: — (— GI% is below 15%)
- GI% [7]: 38.62%
- GI% (HOP-62 (NSC lung cancer)): — (— GI% is below 15%)
- GI% [8]: — (— GI% is below 15%)
- GI% (SK-OV-3 (ovarian cancer)): — (— GI% is below 15%)
- GI% (U251 (CNS cancer)): 24.58%
- GI% (HT29 (colon cancer)): — (— GI% is below 15%)
- GI% (IGROV1 (ovarian cancer)): — (— GI% is below 15%)
- GI% (SN12C (renal cancer)): — (— GI% is below 15%)
- GI% (UACC-62 (melanoma)): — (— GI% is below 15%)
- GI% (MDA-MB-435 (melanoma)): — (— GI% is below 15%)
- GI% [9]: 18.89%
- GI% (SK-MEL-28 (melanoma)): — (— GI% is below 15%)
- GI% (KM12 (colon cancer)): 28.28%
- GI% [10]: — (— GI% is below 15%)
- GI% (HCT-15 (colon cancer)): 19.56%
